Data taken from ChEMBL document CHEMBL1909046, “DrugMatrix in vitro pharmacology data”.

Tests used:
[1] = molecular target: T1, Alpha-2C adrenergic receptor (Homo sapiens, UniProt P18825); assay: DRUGMATRIX: Adrenergic Alpha-2C radioligand binding (ligand: [3H] MK-912); assay type: cell membranes, Sf9, Membrane; settings: sf9
T1 sequence (P18825 whole entry): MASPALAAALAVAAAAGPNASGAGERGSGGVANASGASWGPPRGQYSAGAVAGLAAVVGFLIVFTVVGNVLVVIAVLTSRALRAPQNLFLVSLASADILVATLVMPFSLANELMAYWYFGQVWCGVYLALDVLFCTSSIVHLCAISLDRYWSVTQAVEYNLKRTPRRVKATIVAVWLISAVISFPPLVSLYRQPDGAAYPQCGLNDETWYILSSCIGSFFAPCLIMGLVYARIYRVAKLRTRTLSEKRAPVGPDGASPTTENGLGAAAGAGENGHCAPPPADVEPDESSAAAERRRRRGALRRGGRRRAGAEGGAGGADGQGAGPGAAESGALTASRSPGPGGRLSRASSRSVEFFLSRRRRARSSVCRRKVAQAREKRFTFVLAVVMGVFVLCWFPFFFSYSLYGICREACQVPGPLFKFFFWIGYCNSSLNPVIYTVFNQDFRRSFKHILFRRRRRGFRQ

Melanocortin receptor 5 = Melanocortin receptor 5 (Homo sapiens, UniProt P33032); assay type: cell membranes, HEK293, Membrane; settings: hek293; note: in other assays of this panel Not Active means under 50% inhibition at 10 µM
Chain of Melanocortin receptor 5 (P33032 whole entry): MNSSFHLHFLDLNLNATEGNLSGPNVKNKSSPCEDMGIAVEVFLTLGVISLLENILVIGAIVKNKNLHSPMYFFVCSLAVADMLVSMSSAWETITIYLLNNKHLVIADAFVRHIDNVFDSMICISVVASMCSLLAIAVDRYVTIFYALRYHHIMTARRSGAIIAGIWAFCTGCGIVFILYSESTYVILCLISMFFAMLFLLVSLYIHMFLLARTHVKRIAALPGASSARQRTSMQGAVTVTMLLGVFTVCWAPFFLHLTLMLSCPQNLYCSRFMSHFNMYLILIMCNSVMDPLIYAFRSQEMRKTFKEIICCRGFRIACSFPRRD

[2] = molecular target: T2, Alpha-1D adrenergic receptor (Homo sapiens, UniProt P25100); assay type: cell membranes, HEK293, Membrane; settings: hek293; note: in other assays of this panel Not Active means under 50% inhibition at 10 µM
T2 sequence (P25100 whole entry): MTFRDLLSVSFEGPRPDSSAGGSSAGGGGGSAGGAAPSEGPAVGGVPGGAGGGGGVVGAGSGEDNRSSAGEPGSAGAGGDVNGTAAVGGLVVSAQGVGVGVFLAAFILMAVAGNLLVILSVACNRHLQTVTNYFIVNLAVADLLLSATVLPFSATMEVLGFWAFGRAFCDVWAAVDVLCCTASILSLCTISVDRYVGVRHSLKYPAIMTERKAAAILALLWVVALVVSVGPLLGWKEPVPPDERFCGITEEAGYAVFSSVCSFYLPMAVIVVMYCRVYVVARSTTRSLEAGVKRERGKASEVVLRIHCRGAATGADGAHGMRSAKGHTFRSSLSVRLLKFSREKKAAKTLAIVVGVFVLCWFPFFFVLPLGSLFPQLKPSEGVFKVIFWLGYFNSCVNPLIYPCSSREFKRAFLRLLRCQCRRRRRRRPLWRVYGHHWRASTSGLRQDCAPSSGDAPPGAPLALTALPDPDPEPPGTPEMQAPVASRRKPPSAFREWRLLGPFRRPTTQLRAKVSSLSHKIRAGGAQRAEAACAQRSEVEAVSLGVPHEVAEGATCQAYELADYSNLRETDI

[3] = molecular target: T3, 5-hydroxytryptamine receptor 2C (Homo sapiens, UniProt P28335); assay: DRUGMATRIX: Serotonin (5-Hydroxytryptamine) 5-HT2C radioligand binding (ligand: [3H] Mesulergine); assay type: cell membranes, CHO-K1, Membrane; settings: Not Active = under 50% inhibition at 10 µM
T3 sequence (P28335 whole entry): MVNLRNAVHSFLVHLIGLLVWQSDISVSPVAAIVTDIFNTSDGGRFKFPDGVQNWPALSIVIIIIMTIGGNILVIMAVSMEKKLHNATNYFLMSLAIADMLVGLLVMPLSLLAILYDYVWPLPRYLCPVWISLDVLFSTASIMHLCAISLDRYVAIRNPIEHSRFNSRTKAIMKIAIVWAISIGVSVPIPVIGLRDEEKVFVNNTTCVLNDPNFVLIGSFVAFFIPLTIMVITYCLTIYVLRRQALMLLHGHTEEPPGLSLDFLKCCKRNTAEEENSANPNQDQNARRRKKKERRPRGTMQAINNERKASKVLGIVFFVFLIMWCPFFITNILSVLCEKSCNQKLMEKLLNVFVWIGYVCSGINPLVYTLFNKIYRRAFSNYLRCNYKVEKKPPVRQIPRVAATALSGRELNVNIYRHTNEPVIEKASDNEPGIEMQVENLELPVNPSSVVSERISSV

Vasopressin V1a receptor = Vasopressin V1a receptor (Homo sapiens, UniProt P37288); assay type: cell membranes, Membrane; settings: hek293; note: in other assays of this panel Not Active means under 50% inhibition at 10 µM
Chain of Vasopressin V1a receptor (P37288 whole entry): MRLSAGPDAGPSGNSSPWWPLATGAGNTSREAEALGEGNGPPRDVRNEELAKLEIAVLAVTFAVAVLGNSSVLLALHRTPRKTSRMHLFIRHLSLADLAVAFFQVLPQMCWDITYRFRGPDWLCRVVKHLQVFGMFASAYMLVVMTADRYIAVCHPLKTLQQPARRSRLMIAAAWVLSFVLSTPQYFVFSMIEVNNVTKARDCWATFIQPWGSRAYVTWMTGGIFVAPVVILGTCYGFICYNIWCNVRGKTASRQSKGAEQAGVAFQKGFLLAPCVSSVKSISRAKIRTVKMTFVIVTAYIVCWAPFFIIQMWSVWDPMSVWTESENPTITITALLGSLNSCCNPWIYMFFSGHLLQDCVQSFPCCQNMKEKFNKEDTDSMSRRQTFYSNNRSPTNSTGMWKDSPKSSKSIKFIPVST

[4] = DRUGMATRIX: Sodium/nucleoside co-transporter radioligand binding (ligand: nitrobenzylthioinosine); assay type: cell membranes, Cavia porcellus, Dunkin-Hartley, Cerebral cortex, Membrane; settings: Not Active = under 50% inhibition at 10 µM

Compound: O=C(c1ccccc1F)N1CCC(Cc2ccccc2)CC1
- IC50 [1]: Not Active
- IC50 (Melanocortin receptor 5): Not Active
- IC50 [2]: Not Active
- IC50 ([3]; cho-k1): Not Active
- IC50 (Vasopressin V1a receptor): Not Active
- IC50 [4]: Not Active
- Ki [4]: Not Active

Compound: O=C(O)CCNC(=O)c1ccc(/N=N/c2ccc(O)c(C(=O)O)c2)cc1 [BALSALAZIDE]
- IC50 [1]: Not Active
- IC50 (Melanocortin receptor 5): Not Active
- IC50 [2]: Not Active
- IC50 ([3]; cho-k1): Not Active
- IC50 (Vasopressin V1a receptor): Not Active
- IC50 [4]: Not Active
- Ki [4]: Not Active

Compound: N=C(N)c1ccc(OCCCCCOc2ccc(C(=N)N)cc2)cc1 [PENTAMIDINE]
- IC50 [1]: Not Active
- IC50 (Melanocortin receptor 5): Not Active
- IC50 [2]: Not Active
- IC50 ([3]; read-out: IC50): 3280 nM
- Ki ([3]; read-out: Ki): 1720 nM
- IC50 (Vasopressin V1a receptor): Not Active
- IC50 [4]: Not Active
- Ki [4]: Not Active

Compound: CN1C(=O)CN=C(c2ccccc2)c2cc([N+](=O)[O-])ccc21 [NIMETAZEPAM]
- IC50 [1]: Not Active
- IC50 (Melanocortin receptor 5): Not Active
- IC50 [2]: Not Active
- IC50 ([3]; cho-k1): Not Active
- IC50 (Vasopressin V1a receptor): Not Active
- IC50 [4]: Not Active
- Ki [4]: Not Active

Compound: NS(=O)(=O)c1cc(C2(O)NC(=O)c3ccccc32)ccc1Cl (stereo not given) [CHLORTHALIDONE]
- IC50 [1]: Not Active
- IC50 (Melanocortin receptor 5): Not Active
- IC50 [2]: Not Active
- IC50 ([3]; cho-k1): Not Active
- IC50 (Vasopressin V1a receptor): Not Active
- IC50 [4]: Not Active
- Ki [4]: Not Active

Compound: CC(=O)OCC(=O)[C@@]1(O)CC[C@H]2[C@@H]3CCC4=CC(=O)CC[C@]4(C)[C@@]3(F)[C@@H](O)C[C@@]21C [FLUDROCORTISONE ACETATE]
- IC50 [1]: Not Active
- IC50 (Melanocortin receptor 5): Not Active
- IC50 [2]: Not Active
- IC50 ([3]; cho-k1): Not Active
- IC50 (Vasopressin V1a receptor): Not Active
- IC50 [4]: Not Active
- Ki [4]: Not Active

Compound: COLISTIN
- IC50 [1]: Not Active
- Ki [1]: Not Active
- IC50 (Melanocortin receptor 5; read-out: IC50): 266 nM
- Ki (Melanocortin receptor 5; read-out: Ki): 249 nM
- IC50 [2]: Not Active
- Ki [2]: Not Active
- IC50 ([3]; cho-k1): Not Active
- Ki ([3]; cho-k1): Not Active
- IC50 (Vasopressin V1a receptor): Not Active
- Ki (Vasopressin V1a receptor): Not Active
- IC50 [4]: Not Active
- Ki [4]: Not Active

Compound: O=c1c(-c2ccc(O)cc2)coc2cc(O)cc(O)c12 [GENISTEIN]
- IC50 [1]: Not Active
- IC50 (Melanocortin receptor 5): Not Active
- IC50 [2]: Not Active
- IC50 ([3]; read-out: IC50): 14900 nM
- Ki ([3]; read-out: Ki): 7810 nM
- IC50 (Vasopressin V1a receptor): Not Active
- IC50 [4]: Not Active
- Ki [4]: Not Active

Compound: CN1C[C@@H]2C[C@H]1CN2c1cc2c(cc1F)c(=O)c(C(=O)O)cn2C1CC1 [DANOFLOXACIN]
- IC50 [1]: Not Active
- IC50 (Melanocortin receptor 5): Not Active
- IC50 [2]: Not Active
- IC50 ([3]; cho-k1): Not Active
- IC50 (Vasopressin V1a receptor): Not Active
- IC50 [4]: Not Active
- Ki [4]: Not Active

Compound: C[C@]12C=CC(=O)C=C1CC[C@H]1[C@@H]3C[C@@H](O)[C@](O)(C(=O)CO)[C@@]3(C)C[C@H](O)[C@@]12F [TRIAMCINOLONE]
- IC50 [1]: Not Active
- IC50 (Melanocortin receptor 5): Not Active
- IC50 [2]: Not Active
- IC50 ([3]; cho-k1): Not Active
- IC50 (Vasopressin V1a receptor): Not Active
- IC50 [4]: Not Active
- Ki [4]: Not Active

Compound: CN1CCN(c2c(F)cc3c(=O)c(C(=O)O)cn(CCF)c3c2F)CC1 [FLEROXACIN]
- IC50 [1]: Not Active
- IC50 (Melanocortin receptor 5): Not Active
- IC50 [2]: Not Active
- IC50 ([3]; cho-k1): Not Active
- IC50 (Vasopressin V1a receptor): Not Active
- IC50 [4]: Not Active
- Ki [4]: Not Active

Compound: CC(C)(C(=O)O)c1ccc(C(O)CCCN2CCC(C(O)(c3ccccc3)c3ccccc3)CC2)cc1 (stereo not given) [FEXOFENADINE]
- IC50 [1]: Not Active
- IC50 (Melanocortin receptor 5): Not Active
- IC50 [2]: Not Active
- IC50 ([3]; cho-k1): Not Active
- IC50 (Vasopressin V1a receptor): Not Active
- IC50 [4]: Not Active
- Ki [4]: Not Active

Compound: CC(O)(P(=O)(O)O)P(=O)(O)O [ETIDRONIC ACID]
- IC50 [1]: Not Active
- IC50 (Melanocortin receptor 5): Not Active
- IC50 [2]: Not Active
- IC50 ([3]; cho-k1): Not Active
- IC50 (Vasopressin V1a receptor): Not Active
- IC50 [4]: Not Active
- Ki [4]: Not Active

Compound: CCOC(=O)c1ncn2c1CN(C)C(=O)c1cc(F)ccc1-2 [FLUMAZENIL]
- IC50 [1]: Not Active
- IC50 (Melanocortin receptor 5): Not Active
- IC50 [2]: Not Active
- IC50 ([3]; cho-k1): Not Active
- IC50 (Vasopressin V1a receptor): Not Active
- IC50 [4]: Not Active
- Ki [4]: Not Active
